Here are results for two molecules from patent US4293489A, “Derivatives of A-30912A nucleus” (Eli Lilly and Company, priority 1980, dated 1981).

Structures are written as SMILES. Starred links: 1 amine or outer side, 2 acyl side, 3 side chain; linkers in the order of their positions; H or OH if unused. Positions of bridges follow the written chain, without caps; N, C: chain ends. Non-standard residues stand in square brackets, D forms with d. Residues, ends and D or L forms follow the SMILES beside them. *: point of attachment. Orn(4R-OH,5R-OH) = O=C([C@H](C[C@@H](O)[C@@H](O)N[*:3])N[*:1])[*:2]; hTyr(3S-OH,4S-OH) = N[C@H](C(=O)O)[C@H](O)[C@@H](O)c1ccc(O)cc1; Pro(3S-OH,4S-Me) = C[C@H]1CN[C@H](C(=O)O)[C@H]1O; Benzoyl(4-octyloxy) = CCCCCCCCOc1ccc(C(=O)*)cc1; Hyp = O=C(O)[C@@H]1C[C@@H](O)CN1

In one series the test system is pathogenic fungi. The experiment in a line: Antifungal activity, standard biological test procedures. It counts as cell-based. Conditions: cyclic nucleus lacking the linoleoyl side chain. From the text:
The compounds of Formula III inhibit the growth of pathogenic fungi as evidenced by standard biological test procedures. The compounds are useful, therefore, for controlling the growth of fungi on environmental surfaces (as an antiseptic) or in treating infections caused by fungi. […] Thus, the compounds are particularly useful in treating infections caused by strains of C. albicans (candidosis). The compounds of Formula III have also shown activity in vitro in agar-plate disc diffusion tests against Trichophyton mentagrophytes, a dermatophytic organism. Activity has also been found in in vitro agar-plate disc-diffusion tests against Saccharomyces pastorianus, and Neurospora crassa. Certain compounds (as shown in Example 6, Table 9) give significant blood levels upon oral administration in mice.

Series [1] can be described thus: Blood levels after oral administration in mice. Conditions: mouse, 416 mg/kg.
Description: In this test, mice are gavaged with a dose of 416 mg/kg of the test compound suspended in 33% PEG 400-water. At time intervals, blood samples are taken from the orbital sinus and are assayed for antibiotic activity as follows: A 7 mm. disc containing 20 μl of whole blood is placed on agar seeded with Aspergillus montevidensis A35137. After 40 hours incubation at 30° C. zones of inhibition from the blood samples are compared to a standard obtained from the test compound, and the amount of compound in the blood sample is calculated.

With `C[C@@H](O)[C@@H]1NC(=O)[C@H]([C@H](O)[C@@H](O)c2ccc(O)cc2)NC(=O)[C@@H]2C[C@@H](O)CN2C(=O)[C@H]([C@@H](C)O)NC(=O)[C@@H](N)C[C@@H](O)[C@@H](O)NC(=O)[C@@H]2[C@@H](O)[C@@H](C)CN2C1=O` [A-30912A nucleus] (H-[Orn(4R-OH,5R-OH)]T[Hyp][hTyr(3S-OH,4S-OH)]T[Pro(3S-OH,4S-Me)]; lactam 1-C), in the series with pathogenic fungi, the antifungal activity result is on record as “substantially devoid of antifungal activity”.
The molecule `CCCCCCCCOc1ccc(C(=O)N[C@H]2C[C@@H](O)[C@@H](O)NC(=O)[C@@H]3[C@@H](O)[C@@H](C)CN3C(=O)[C@H]([C@@H](C)O)NC(=O)[C@H]([C@H](O)[C@@H](O)c3ccc(O)cc3)NC(=O)[C@@H]3C[C@@H](O)CN3C(=O)[C@H]([C@@H](C)O)NC2=O)cc1` [drawing 181] ({Benzoyl(4-octyloxy)}-[Orn(4R-OH,5R-OH)]T[Hyp][hTyr(3S-OH,4S-OH)]T[Pro(3S-OH,4S-Me)]; lactam 1-C) returned a peak concentration (Cmax) in series [1] of 23000 ng/mL.
